In patent publication US12103951B2, “Use of CGRP receptor antagonists in neuroprotection and neurological disorders” (priority 2016, dated 2024):
Entries after “also recorded” stand apart in the source; their conditions may differ.

Assays:
C-nociceptors = experiment: Spontaneous activity in C-nociceptors, rat crush-induced sciatic neuropathy (microneurography); details: 25 μg/Kg i.p.; for spontaneous activity in C-fibers (action potentials recorded in the sciatic nerve): after administration, FIG. 1
Description: To investigate the effects of a CGRP receptor antagonist on pathological spontaneous activity in C-nociceptors the following experiments were performed on Sprague-Dawly rats. Crush-inducing sciatic neuropathy was produced in 12 male Sprague-Dawley rats. Spontaneous activity in injured C-nociceptors was then detected with microneurography and the response to CGRP receptor antagonist was assessed under unblind conditions. This study aimed to assess the effect of the CGRP receptor antagonist, on electrophysiological measures of spontaneous activity in subpopulations of injured C-nociceptors in a model of neuropathic pain, and to investigate the effects of the CGRP receptor antagonist on pathological spontaneous activity in peripheral C-nociceptors.
All surgical procedures were performed under general anesthesia (ketamine 90 mg/kg+xylazine 10 mg/kg i.p. (intraperitoneal)). The sciatic nerve was exposed at mid-thigh level. A standardized injury was produced by crushing the nerve three times in succession with a very fine point forcep at a constant point, 90 mm from the tip of the third digit. The wound was then sutured by layers and disinfected with povidone iodine. The animals received an analgesic subcutaneous (s.c). dose of buprenorphine and were maintained in a warm environment until full recovery from the anesthetic, and were allowed to recover from the nerve injury for a minimum of 70 days.
CGRP receptor antagonist (SEQ ID NO: 1) was dissolved according to manufacturer's instructions in saline solution, at a final concentration of 25 μg/Kg. Volumes of the intraperitoneal (i.p.) injected bolus ranged from 0.48 to 0.58 ml.
Animals weighing 478±36 g (mean±SD) on the day of the recording were anesthetized with ketamine (90 mg/Kg) and xylazine (10 mg/Kg) injected i.p (intraperitoneal). Repeated administrations of one-half of the initial dose were performed as required to maintain the level of anesthesia, usually every hour.
Recordings of the sciatic nerve electrical activity were obtained inserting a tungsten microelectrode (FHC, Bowdoinham, ME, USA, nominal impedance 50-100KΩ, shaft Ø 175 μm (Ø=diameter)) into the sciatic nerve trunk with the aid of a micromanipulator. The recording electrode was carefully advanced into the nerve with the micromanipulator until characteristic neural audio signal could be heard. The method follows the same principles of the microneurographic technique employed in human patients.
The neural signals were first amplified with an isolated, high input impedance amplifier, band-pass filtered (maximum range 50-5000 Hz) and passed through a noise eliminator. The signal was then fed to an AM10 audio-monitor with noise clipper (Grass Technologies, Warwick, RI, USA) and to computers running separate software for collecting spontaneous and electrically evoked activity. Electrical stimuli were delivered to the cutaneous receptive field of the units by means of a constant current stimulator (DS7A, Digitimer, Welwyn Garden City, Hertfordshire, UK).
Electrical stimuli were triggered and the responses to electrical stimulation recorded and analyzed with a PC and PCI-6221M data acquisition board (National Instruments, […], USA) running QTRAC software (©Institute of Neurology, London, UK). Spontaneous activity was digitized at 20 kHz and recorded continuously on one of the computers running LabChart software (PowerLab Systems, ADInstruments Ltd., Bella Vista, New South Wales, Australia). Analysis was performed with software written by Neuroscience Technologies, Science Park of Barcelona, Spain, to detect and quantify spontaneous activity.
Trigger pulses were delivered to the stimulator at different frequencies necessary to induce ADS of conduction velocity of the recorded C-fibers. The digitized responses were stored on computer as raw data for off-line analysis.

[1] = system: retinal ganglion cell (RGC); experiment: Rat laser glaucoma model: number of RGCs (Brn3a positive cells) in retinal whole mounts; type: in vivo, Wistar rats
Description: In this study, Wistar rats (n=12) were used for the experiments. The neuroprotective properties of compounds were investigated in a rat laser model of glaucoma. Rats were divided into two groups of six rats each. One group served as a placebo control receiving vehicle (NaCl) injections, and the other was treated with a peptide CGRP receptor antagonist (SEQ ID NO: 1). For all 12 rats, the contralateral, untreated eye served as a naïve undiseased control. The vehicle control and test compound (20 mg/kg) were administered systemically (IP) daily for the whole follow-up period of two weeks. The animals were sacrificed using transcardial perfusion. […] The number of Brn3a positive profiles was manually counted from retinal images taken from central and peripheral parts of retina. […]
1. Quantification of Brn3a and GFAP-positive cells from retinal whole mounts manually and using stereology. […]
Retinal whole mounts were immuno-stained against RGC (Brn3a) and astrocytic (GFAP) antibodies and the number of cells was quantified either manually (Brn3a) or as previously described (Kalesnykas et al., 2008).
The retinas were immuno-stained against RGC specific antibody Brn3a, retinas were imaged and Brn3a positive profiles were counted manually using Image J software (NIH, Bethesda, Maryland, USA). […]

[2] = 10 min before vs 10 min after administration, paired t-test, listed as CGRP receptor antagonist

NH2-Ala-Cys-Asp-Thr-Ala-Ala-Cys-Val-Leu-Gly-Arg-Leu-Ser-Gln-Glu-Leu-His-Arg-Leu-Gln-Thr-Tyr-Pro-Arg-Thr-Asn-Val-Gly-Ser-Lys-Ala-Phe-NH2 (H-ACDTAACVLGRLSQELHRLQTYPRTNVGSKAF-NH2; ends and bridges not checked) [SEQ ID NO: 1, peptide CGRP receptor antagonist]
SLI/10 min (Significant Latency Increase) (C-nociceptors; [2]): did not reveal a statistically significant effect; also recorded: No significant differences were observed | TI (%) (Total Increase) (C-nociceptors; [2]): did not reveal a statistically significant effect; also recorded: No significant differences were observed | spontaneous activity in C-fibers (action potentials recorded in the sciatic nerve) (C-nociceptors; rat crush sciatic neuropathy): preventing further spontaneous activity in the C-fibers | spontaneous activity in C-fibers (action potentials recorded in the sciatic nerve) (C-nociceptors; rat crush sciatic neuropathy, listed as CGRP receptor antagonist): virtually no excitation observed | spontaneous activity at long intervals after the administration (C-nociceptors; rat crush sciatic neuropathy, up to 90 min): less spontaneous activity | Morbidity and mortality (C-nociceptors; rats, whole procedure): in good condition during the whole procedure | number of Brn3a positive cells, increase in lasered eyes vs contralateral control eyes ([1]; IP daily for two weeks, increase, P=0.43): 3.0% | neuroprotection at cellular and optic nerve axon levels ([1]; rat glaucoma model, systemic administration): showed neuroprotection
